Measured values as given in article PMC10582335 (Frontiers in Pharmacology, 2023).
Several values for one entry are separate records, joined by “and”; a condition that tells them apart may be missing. Equal entries are not always repeated. Where two headings read alike, the source gives them in different places.

Experiment: Pharmacokinetics of apixaban in rats, alone and after multiple doses of almonertinib
Type: in vivo, Sprague-Dawley (SD) rats
Details: for increase of AUC of apixaban: multiple doses of almonertinib; for MRT inf / MRT last / AUC(0-inf) / AUC(0-t) / Cmax / Tmax / CL/F / Vd/F / half-life: male, Sprague-Dawley, rat, po; for MRT inf: read-out: MRT0-∞; for MRT last: read-out: MRT0-t; for CL/F: read-out: CLz/F (converted); for Vd/F: read-out: Vz/F; for half-life: read-out: t1/2z (converted)
Method: Chromatographic separation was performed using an XSelect HSS T3 column (2.1 mm × 100 mm, 2.5 µm, Waters, Milford, MA, United States) at 40°C by gradient elution. The mobile phase consisted of water (A) and acetonitrile (0.1% formic acid, B). […] The flow rate was 0.35 mL min^−1, and the injection volume was 6 µL. The positive ion mode with multiple reaction detection was used. […] The mass spectrometer conditions, including delustering potential (DP) and collision energy (CE) of the compounds, are shown in Table 1. […] Protein precipitation was used to process the plasma samples. 5 μL of mixed IS working solution, 50 µL of the plasma samples, and 150 µL of acetonitrile were vortex-mixed for 1.0 min. […] The supernatant was transferred to a 96-well plate for sample analysis. […] (Beijing, China). […] The study was approved and supervised by the Animal Ethics Committee of Hebei General Hospital (Shijiazhuang, China) (No. 2023024). Adaptive feeding (sufficient food and water) was performed for 1 week before the experiment. […] All rats were fasted for 12 h before starting the experiments while still given water. Sixty healthy rats were randomly divided into ten groups (n = 6). […] Blood samples were centrifuged at 3,500 g for 10 min, and then the supernatant was gathered and stored in a −80°C refrigerator. After, rat intestine, kidney and liver tissues were harvested for molecular analysis on the ninth or fifth day after treatment with the corresponding drugs for each group. The tissues were placed immediately at −80°C. DAS 2.1.1 Software (Mathematical Pharmacology Professional Committee of China, Shanghai, China) was applied to calculate pharmacokinetic parameters using non-compartmental analysis. SPSS 25.0 statistical software (SPSS Inc., Chicago, IL, United States) was applied to statistically analyze the main pharmacokinetic parameters, including AUC, Cmax, Tmax, t1/2, CLz/F, Vz/F, and MRT.

[1] = apixaban 0.25 mg/kg with multiple doses of almonertinib (group 8) compared with group 2, rats
[2] = apixaban 0.5 mg/kg with multiple doses of almonertinib (group 7) compared with group 2, rats
[3] = plasma, 0.25 mg/kg, rats, oral apixaban 0.25 mg/kg after almonertinib 15 mg/kg for nine days (group 8), mean ± SD, n = 6
[4] = plasma, 0.5 mg/kg, rats, oral apixaban 0.5 mg/kg after almonertinib 15 mg/kg for nine days (group 7), mean ± SD, n = 6
[5] = plasma, 0.5 mg/kg, rats, oral apixaban 0.5 mg/kg alone (group 2), mean ± SD, n = 6

COc1ccc(-n2nc(C(N)=O)c3c2C(=O)N(c2ccc(N4CCCCC4=O)cc2)CC3)cc1 [apixaban, Apixaban]
increase of Cmax of apixaban (apixaban 0.25 mg/kg with multiple doses of almonertinib (group 8) compared with apixaban 0.5 mg/kg alone (group 2), rats): 2.19 fold and 2.2 fold
decrease of CLz/F of apixaban [1]: 5.29 fold
increase of AUC0-t of apixaban [1]: 2.06 fold
increase of AUC0-∞ of apixaban [1]: 2.02 fold
increase of Cmax of apixaban (apixaban 0.5 mg/kg with multiple doses of almonertinib (group 7) compared with apixaban 0.5 mg/kg alone (group 2), rats): 2.69 fold and ~3.0 fold
decrease of CLz/F of apixaban [2]: 3.00 fold
increase of AUC0-t of apixaban [2]: 2.87 fold
increase of AUC0-∞ of apixaban [2]: 2.82 fold
increase of AUC of apixaban (dose of apixaban reduced by half, rats (discussion)): 2.1 fold
MRT inf (in vivo, 0.25 mg/kg): 2.06 ± 0.36 h
MRT last (in vivo, 0.5 mg/kg): 2.19 ± 0.13 h
AUC(0-inf) [3]: 1870 ± 528 ng·h/mL
AUC(0-t) [3]: 1870 ± 529 ng·h/mL
Cmax [3]: 645 ± 191 ng/mL
Tmax [3]: 0.79 ± 0.25 h
CL/F [3]: 2.33 mL/min/kg
Vd/F [3]: 0.44 ± 0.11 L/kg
half-life [3]: 2.17 ± 0.15 h
MRT last (plasma, 0.25 mg/kg): 2.01 ± 0.32 h
AUC(0-inf) [4]: 2370 ng·h/mL
AUC(0-t) [4]: 2360 ng·h/mL
Cmax [4]: 747 ± 159 ng/mL
Tmax [4]: 0.63 ± 0.14 h
CL/F [4]: 3.67 mL/min/kg
MRT inf [4]: 2.11 ± 0.13 h
Vd/F [4]: 0.58 ± 0.2 L/kg
half-life [4]: 1.81 ± 0.23 h
AUC(0-inf) [5]: 621 ± 168 ng·h/mL
AUC(0-t) [5]: 611 ± 168 ng·h/mL
Cmax [5]: 202 ± 50.9 ng/mL
Tmax [5]: 0.68 ± 0.28 h
CL/F [5]: 14.7 mL/min/kg
MRT inf [5]: 2.42 ± 0.16 h
Vd/F [5]: 3.72 ± 1.63 L/kg
half-life [5]: 2.95 ± 0.96 h
MRT last (plasma, 0.5 mg/kg): 2.08 ± 0.13 h
increase of AUC of apixaban (rats (discussion, AUC not specified further)): ~3.0 fold
